In brackets after ≈: the same amount, converted by molar mass. Like-named read-outs stand apart in the source and are kept apart here. Marks after values point to notes of the source that are not given here.
What was measured:
NF-kB = assay: NF-kB-luciferase assay system in C2C12 cell line; type: cell-based; conditions: for Compare quercetin (EC50 NF-kB): NF-kB inhibitory activity relative to quercetin
Description: Activity of the complex was measured using a C2C12 cell line with a NF-kB-luciferase assay system (Affymetrix, Santa Clara, Calif.), and compared to a number of flavonoid controls.

[1] = Total ORACFN (sum over the five reactive species); type: biochemical; parameters: ORAC-FN: unit not given here; conditions: for ORAC-FN: Table 5 summary, total ORACFN, unit not given; for Compare quercetin (ORAC-FN): anti-oxidant activity relative to quercetin
Description: This example describes the anti-oxidant activity of the eriodictyol complex described in Table 1. Anti-oxidant activity was measured using an oxygen radical absorbance capacity assay for food and nutrition ([…]). The assay was performed using techniques known in the art, such as those disclosed in Ou, B. et al., J Agric and Food Chem, 2001, 49 (10): 4619-4626; Huang, D. et al., J Agric and Food Chem, 2002, 50 (7): 1815-1821; Ou, B. et al., J Agric and Food Chem, 2002, 50 (10): 2772-2777; Zhang, L. et al., Free Radic. Bio Med, 2007, 43 (suppl. 1): S17; Dubost, N.J. et al., Food Chem, 2007, 105 (2): 727-735; Zhang, L. et al., J Agric and Food Chem, 2009, 57(7): 2661-2667; and U.S. Pat. No. 7,132,296, the contents of all of which are incorporated herein by reference. The activity of the eriodictyol complex against peroxyl radicals, hydroxyl radicals, peroxynitrite, super oxide anion, and singlet oxygen was measured. The total […] was also measured.

IL-6 = IL-6 level in mice fed a high-fat diet; type: in vivo; conditions: for IL-6: high fat diet mice, mean ± standard deviation
Description: (§1) The effects of eriocitrin and eriodictyol on anti-inflammatory markers were determined in mice fed a high-fat diet and compared to negative control, untreated mice that were fed either a standard- or high-fat-diet. Eriocitrin and eriodictyol effects were also compared against ibuprofen- and hesperidin-treated, high-fat-diet-fed mice. The effects of these various treatments on the cytokines IL-6, IL-10, MCP-1, and TNF-alpha are shown below.

IL-10 = IL-10 level in mice fed a high-fat diet; type: in vivo; conditions: mean ± standard deviation
Description: as §1

MCP-1 = MCP-1 level in mice fed a high-fat diet; type: in vivo; conditions: for MCP-1: high fat diet mice, mean ± standard deviation
Description: as §1

TNF-alpha = TNF-alpha level in mice fed a high-fat diet; type: in vivo; conditions: mean ± standard deviation
Description: as §1

[2] = Clinical study of metabolic syndrome symptoms (fasting glucose, insulin, hs-CRP, lipid panel); type: in vivo; conditions: humans, after 30 days, ≥10 hour fast, versus placebo
Description: A clinical study is performed in which subjects undergo a one-week run-in period during which subject document baseline data. Subjects meeting the inclusion/exclusion criteria are enrolled in the study and sent a glucometer to determine their fasting blood glucose levels. Those meeting the study criteria are enrolled in the study.
The subjects fast for at least 10 hours, and their fasting glucose, fasting insulin, hs-CRP levels, and lipid panels (including LDL, HDL, and triglycerides) are measured. Following these baseline measurements, subjects consume (1) 50 mg-2 g/day eriocitrin; (2) 50 mg-2 g/day eriocitrin, 50-250 mg/day neoeriocitrin, 50-250 mg/day hesperidin; or (3) a placebo. After 30 days, the subjects' glucose, insulin, hs-CRP, and lipid panel measurements are taken after a ≥10 hour fast.

[3] = Mus musculus, NF-kB inhibition, C2C12 cell line, NF-kB-luciferase, read-out: EC50
[4] = Mus musculus, C2C12, Table 5 summary, unit inferred, read-out: EC50 NF-kB
[5] = high-fat-diet-fed mice, in words

| EC50 (NF-kB; [3]) | EC50 (NF-kB; [4]) | Compare quercetin (EC50 NF-kB) (NF-kB) | SMILES | ORAC-FN [1] | Compare quercetin (ORAC-FN) [1] | IL-6 (IL-6) | IL-10 (IL-10) | MCP-1 (MCP-1) | TNF-alpha (TNF-alpha) | other results |
| --- | --- | --- | --- | --- | --- | --- | --- | --- | --- | --- |
| 31.5 µg/mL (≈ 104 µM) | – | – | O=c1c(O)c(-c2ccc(O)c(O)c2)oc2cc(O)cc(O)c12 [Quercetin•2H2O] | – | – | – | – | – | – | – |
| 32 µg/mL (≈ 118 µM) | 32 µg/mL (≈ 118 µM) | 0.78 | O=C1C[C@@H](c2ccc(O)cc2)Oc2cc(O)cc(O)c21 [Naringenin] | 59454 | 0.901 | – | – | – | – | – |
| 54.2 µg/mL (≈ 179 µM) | 54.2 µg/mL (≈ 179 µM) | 0.46 | COc1ccc([C@@H]2CC(=O)c3c(O)cc(O)cc3O2)cc1O [Hesperitin 95, Hesperitin] | 77875 | 1.180 | – | – | – | – | – |
| 381 µg/mL (≈ 656 µM) | 381 µg/mL (≈ 656 µM) | 0.07 | C[C@@H]1O[C@@H](O[C@H]2[C@H](Oc3cc(O)c4c(c3)O[C@H](c3ccc(O)cc3)CC4=O)O[C@H](CO)[C@@H](O)[C@@H]2O)[C@H](O)[C@H](O)[C@H]1O [Naringin] | 22389 | 0.339 | – | – | – | – | – |

The next lines start with the molecule.

| SMILES | EC50 (NF-kB; [3]) | EC50 (NF-kB; [4]) | Compare quercetin (EC50 NF-kB) (NF-kB) | ORAC-FN [1] | Compare quercetin (ORAC-FN) [1] | IL-6 (IL-6) | IL-10 (IL-10) | MCP-1 (MCP-1) | TNF-alpha (TNF-alpha) | other results |
| --- | --- | --- | --- | --- | --- | --- | --- | --- | --- | --- |
| COc1ccc([C@@H]2CC(=O)c3c(O)cc(O[C@@H]4O[C@H](CO[C@@H]5O[C@@H](C)[C@H](O)[C@@H](O)[C@H]5O)[C@@H](O)[C@H](O)[C@H]4O)cc3O2)cc1O [Hesperidin 90, Hesperidin] | – | – | 0.09 | 6067 | 0.092 | – | – | – | – | EC50 (NF-kB; NF-kB inhibition, C2C12 cell line, NF-kB-luciferase): 275.70 µg/mL (≈ 452 µM); EC50 NF-kB (NF-kB; Table 5 summary, unit not given, in µg/mL): 275.70 |
| COc1ccc(-c2cc(=O)c3c(O)cc(O[C@@H]4O[C@H](CO[C@@H]5O[C@@H](C)[C@H](O)[C@@H](O)[C@H]5O)[C@@H](O)[C@H](O)[C@H]4O)cc3o2)cc1O [Diosmin] | 349 µg/mL (≈ 573 µM) | 349 µg/mL (≈ 573 µM) | 0.07 | 373 | 0.006 | – | – | – | – | – |
| C[C@@H]1O[C@@H](OC[C@H]2O[C@@H](Oc3cc(O)c4c(c3)O[C@H](c3ccc(O)c(O)c3)CC4=O)[C@H](O)[C@@H](O)[C@@H]2O)[C@H](O)[C@H](O)[C@H]1O [Eriocitrin, eriodictyol 7-O-B-rutinoside] | 71.4 µg/mL (≈ 120 µM) | 71.4 µg/mL (≈ 120 µM) | 0.35 | 31355 | 0.475 | 3.1 ± 1.6^a | 4.0 ± 2.2 | 19.3 ± 11.1^a | 2.4 ± 0.6 | IL-6 levels in comparison to the negative controls (IL-6; [5]): significantly reduced; MCP-1 levels in comparison to the negative controls (MCP-1; [5]): significantly reduced; HDL levels [2]: increased; LDL levels [2]: reduced; glucose levels [2]: reduced; hs-CRP levels [2]: reduced; insulin levels [2]: reduced; total cholesterol levels [2]: reduced |
| COc1ccc([C@@H]2CC(=O)c3c(O)cc(O[C@@H]4O[C@H](CO[C@@H]5O[C@@H](C)[C@H](O)[C@@H](O)[C@H]5O)[C@@H](O)[C@H](O)[C@H]4O)cc3O2)cc1O [Hesperidin] | – | – | – | – | – | 5.9 ± 4.6^a | 5.3 ± 2.4 | 27.6 ± 9.0^a | 2.7 ± 0.3 | – |
| CC(C)Cc1ccc(C(C)C(=O)O)cc1 (stereo not drawn) [Ibuprofen] | – | – | – | – | – | 21.9 ± 18.1^a | 6.0 ± 4.5 | 43.4 ± 31.5^ab | 1.2 ± 2.4 | – |
